Assay results from patent publication US7384657B2, “Composition of natural herb extract for treating cardiovascular disease and its method of preparation thereof” (priority 2004, dated 2008).
“Also recorded” adds a separate entry of the source. Like-named read-outs stand apart in the source and are kept apart here.

What was measured:
[1] = toleration time in anoxic state in mice; format: in vivo
Text: (§1) The properties of Danshensu are studied.

[2] = dog model having myocardial infarction; format: in vivo
Text: as §1

[3] = pharmacokinetics of Danshensu after auricular vein injection; format: in vivo, rabbits; conditions: 30 mg/kg i.v.
Experimental: Pharmacokinetics of Danshenu in the biological body is studied. After the selected 5 rabbits' auricular veins are injected with Danshensu (injection of 30 mg/kg), blood is drawn regularly every 15, 30, 60, 90, 120 and 150 minutes. Obtain blood plasma and manipulate like before. Determine concentration of the blood medication. Use blank plasma for controlling. According to the mean from the experimental data, with the use of the logarithm and time of Danshensu concentration, create chart which is a straight line.

[4] = pituitary myocardial ischemia in rats, electrocardiac abnormality; format: in vivo
Text: as §1

[5] = system: isolated pig's coronary artery; assay: isolated pig's coronary artery perfusion (modified Oglatree preparation)
Text: as §1
Effect of Danshensu [β-(3,4)-dihydroxyphenyl lactic acid] upon the isolated pig's coronary artery is studied. […] The method, which is different from the method of Oglatree isolated coronary artery preparation, is to have both ends of the isolated pig's coronary artery segment ligated to the perfusion cannula.
Test the same specimen by successively giving it 3 crescendo doses of morphine hydrochloride. Record the largest titer of P after each administration. Using Krbs-Henselait liquid to douche the perfusion system 3 times. When the basic line returns to normal, the effect is very obvious after the application of Danshensu (causing the medical concentration in the perfusion system turning into […]). Repeatedly administrate the same 3 crescendo doses of morphine hydrochloride successively like above. Observe the effect of Danshensu on the systole of coronary artery caused by morphine. Again, after the above-mentioned doses of Danshensu are applied, administrate repeatedly 4 crescendo doses of hydrochloric propanol. Observe the effect of Danshensu on the coronary artery systole caused by propanol. The sequence of administration resembles the above. In addition, after the application of Danshensu, repeat the administration by giving 3 crescendo doses of KCI and 3 crescendo doses of reserpine. […]

[6] = system: isolated heart; assay: isolated heart: coronary blood flow, fibrinolysis
Text: as §1

[7] = internal distribution of Danshensu by HPLC after intravenous Danshen preparation; format: in vivo, domestic rabbit; conditions: after i.v. Danshen preparation
Experimental: HPLC is used to study the domestic rabbit's internal distribution and content of the Chinese Danshen preparation's Danshensu. […] Adrenal tissue's average is 14.15 μg/g (+0.33), liver's tissue average 17.69 μg/g (+4.44), lung's tissue average 19.73 μg/g (+4.00), heart's tissue average 12.30 μg/g (+2.18), brain's tissue average 5.45 μg/g (+0.60) and spleen's tissue average 4.66 μg/g (+0.68).

[8] = pharmacokinetics of oxymatrine and matrine in mice
[9] = 100 mg/kg i.v.
Experimental: Study of pharmacokinetics of Matrine is carried out. […] Rats are given intravenous injection of oxymatrine 100 mg/kg.

[10] = cited from earlier work
[11] = solubility
Experimental: Matrine is also called matricaria. Its molecular formula is C15H24N2O and its molecular weight is 248.36. It has four isomers: α, β, γ, and δ isomers. α-matrine is the one commonly seen. It is a needle or rhombohedral crystal, having a melting point 76° C. and [α]D+39.1° (H2O).
Oxymatrine has a molecular formula C15H24N2O2 and a molecular weight 264.36. It is a colorless columnar crystal (Me2CO), melting point 162° C. (hydrate), 207° C. (anhydrate), [α]D+47.7° (C2H5OH). […] It can change to matrine through reaction with SO2.

[12] = puerarin: patient's blood 6-K-PGF1a, HDL, TXB2; format: in vivo, human; conditions: patients
Text: Puerarin can even heighten the patient's blood 6-K-PGF1a [6-acetone-PGF1a (prostaglandin-stable metabolism product)] and High Density Lipid (HDL) level. […] As a result, it enables the coronary artery and the peripheral blood vessel to expand, and therefore, it resists angina pectoris, reduces blood pressure, lowers myocardial oxygen consumption and improves the Ischemic ECG and etc.

[13] = teratogenicity and mutagenicity in pregnant animals and male germ cells; format: in vivo, rats; conditions: 50 and 150 mg/kg
Experimental: Select 50 pregnant rats. Observe and analyze 450 pregnant mice. Choose 50 and 150 mg/kg as puerarin dosage. […] The deformation of appearance, organ or bone is not found in all the examined fetal mice. It proves neither the puerarin nor the solvent has mutagenic activity on the pregnant mice.

[14] = mice and dog; cited from earlier work
[15] = system: polychromatic erythrocytes; assay: polychromatic erythrocytes micronucleus; format: in vivo; conditions: every dosage group
[16] = system: artery's endothelial cell; assay: arterial endothelial cell culture; format: cell-based; conditions: puerarin 250 μg/ml, 6 hours, 36° C.
Experimental: The effect of puerarin on the arterial endothelial cell is also examined. Puerarin has very outstanding effect on the artery's endothelial cell. Add puerarin (250 μg/ml) to the cellular fluid, but no addition of puerarin in the control group. After 6 hours of culture at 36° C., determine the content of carboxylic proline in both the internal and the external fluid of the endothelial cells respectively. […] The content of carboxylic proline, in the […], drops to Experiment Group's 2.70±0.06 μg/ml and 2.43±0.21 μg/ml from 3.35±0.05 μg/ml and 2.68±0.15 μg/ml in the Control group's internal and external endothelial cells. With regards to osamine polysaccharide, it drops to Experiment Group's 0.95±0.12 μg/ml and 0.68±0.15 μg/ml from 1.77±0.12 μg/m and 1.57±0.08 μg/ml in the internal fluid of Control group. […] It regulates the permeability of the water solubility and the substance of plasma molecule. Besides having an effect on the selective barrier action, its complex enzyme system can synthesize and secrete many active substances such as PGI2.

[17] = single intravenous injection 5 mg/kg; cited from earlier work
[18] = system: β-receptor; assay: radioactive ligand analysis on myocardial membrane; format: binding, rats
Text: (§2) The effecter of β-receptor is the adenylate cyclase (AC). Excitant of the β-receptor can enable the AC to activate and the antagonist can cause it to inhibit. […] It points out puerarin is an antagonist of one type of β-receptors. It has the selective action on the heart's β-receptor. It can achieve various curative effects on the arrhythmia.

[19] = puerarin drops in patients of acute myocardial infarction; format: in vivo, human
[20] = puerarin in dog with acute myocardial ischemia / coronary blockage; format: in vivo
Experimental: Effect of Puerarin upon the heart is studied. The main effect of Puerarin Pur is to change the myocardial ischemia. Apply intervenous injection of puerarin to the dog which contracts the acute myocardial ischemia. […] After the aortic pressure is adjusted to the level of pre-administration, tension-time index and the rising speed of left ventricular pressure also return to the level of pre-administration.
5 minutes after the midpoint of the anterior branch of the dog's coronary artery encountering acute blockage, intravenous injection of puerarin 20 mg/kg is administrated. […] The function lasts 3˜4 hours. It has no effect on LVSD. 15 minutes after the administration, the ST drops obviously. […] Electrocardiographic index reduces clearly and the pulmonary incarceration has not risen.

[21] = excretion of oral puerarin in normal person; format: in vivo, human
Experimental: (§3) Metabolism of medication of Puerarin is studied. 24 hours after the rats taken puerarin orally, 1.85% and 35.7% excreted as urine and stool. After the intravenous injection, 37.62%, 7.39% and 3.65% are secreted from the urine, stool and bile respectively. Absorption, by orally taking, is very little. 36 hours after puerarin is orally taken by normal person, only 0.78% […] secrete from the urine; 72 hours after the oral taking, 73.3% secrete from the stool.

[22] = system: TA97, TA98, TA100 and TA102; assay: Ames test; format: cell-based, typhoid Salmonella bacillus; conditions: 1, 5, 50, 500, 5000 μg per dish, S9 and non-S9
Experimental: Use TA97, TA98, TA100 and TA102 as testing strain; puerarin 1, 5, 50, 500, and 5000 μg as dish. In the experiment of S9 and non-S9, its reverse colonial mutation setting figure is basically the same, that is, mutation rate (MR)<2. It has no dosage-response relation. […] Use human microblood nutrient for culturing. Add human blood to the puerarin injection. Under the condition of isolated body, add S9 activation system, then, culture for 53 hours. […] Therefore, hereditary toxicity has not been indicated.

[23] = system: adenylate cyclase; assay: activation of dissolved adenylate cyclase; format: biochemical
Text: as §2

[24] = arrhythmia caused by chloroform and the adrenal gland; format: in vivo, domestic rabbit
Text: The effect of puerarin on the rhythm of heart is examined. […] Obviously, it also […] the mean of ventricular premature heartbeat and ventricular tachycardia caused by ouabin.

[25] = absorption, distribution and excretion of puerarin in rats; format: in vivo
Text: The pharmacokinetics of puerarin is also studied. Absorption and distribution of medication of Puerarin are studied. […] External experiment proves puerarin's destruction in the enterogastric tract is very minor, but can be metabolized by the tissue of blood, liver, kidney and etc. It is also able to integrate with the liver, kidney, lung and plasma protein. Pharmacokinetics parameter of the rats's intravenous injection indicates puerarin's distribution in the body is vast and clears up fast. It is not easy to store.
as §3

[26] = within 24 hours of intramuscular oxymatrine 100 mg/kg

In the case of `O=C(O)[C@H](O)Cc1ccc(O)c(O)c1` [Danshensu, D(+) β-(3,4-dihydroxyphenyl) lactic acid], the “toleration time in anoxic state” value [1] was “prolong the toleration time in anoxic state”, the “area suffered from myocardial infarction” value [2] was “the area suffered from myocardial infarction is reduced” and the heart function [2] was “the heart function is improved”. The pharmacokinetic model [3] was “single ventricular model”, the half-life ([3]; rabbit, in vivo, iv, 5 rabbits, read-out: biological half-life t1/2) was 16.6 min and the “electrocardiac abnormality of pituitary myocardial ischemia” value [4] was “restore the electrocardiac abnormality”. For the same molecule, the P ([5]; Danshensu 1×10^6 g/ml in perfusion system, 31 strips, 40 experiments) was -2.54±0.48 mmHg, the “dilatation of coronary artery smooth muscle” value ([5]; isolated pig coronary artery) was “dilate the smooth muscle of coronary artery; also recorded: obvious dilatation effect” and the fibrinolysis [6] was “relatively weaker function in fibrinolysis”. The “blood flow of coronary artery” value ([6]; isolated heart) was “increasing the blood flow of coronary artery”, the “Danshensu content, adrenal tissue average” value [7] was 14.15 µg/g and the “Danshensu content, brain tissue average” value [7] was 5.45 µg/g. For the same molecule, the “Danshensu content, heart tissue average” value [7] was 12.30 µg/g, the “Danshensu content, liver tissue average” value [7] was 17.69 µg/g and the “Danshensu content, lung tissue average” value [7] was 19.73 µg/g. The “Danshensu content, spleen tissue average” value [7] was 4.66 µg/g.
With `O=C1CCC[C@@H]2[C@H]3CCC[N+]4([O-])CCC[C@@H](CN12)[C@@H]34` (stereo partly shown) [Oxymatrine] the “transformation in the gastrointestinal tract” value ([8]; stomach perfusion) was “gradually transforms into matrine in the gastrointestinal tract”, the excretion of oxymatrine [8, 26] was 5.1% and the “matrine found in the emiction of urine” value [8, 26] was 20.6%. For the same molecule, the distribution and elimination [9] was “distribution is wide and the elimination fast”, the LD50 ([10]; intramuscular injection) was 256.74 ± 573.6 mg/kg and the LD50 ([10]; intravenous injection) was 144.2 ± 22.8 mg/kg. The solubility [11] was “soluble in water, chloroform and ethanol, but nearly insoluble in ether, methyl ether and petroleum ether”.
In the case of Puerarin, the “blood 6-K-PGF1a and High Density Lipid (HDL) level” value [12] was “heighten”, the “ratio of TXB2/6-K-PGF1a” value [12] was “reduces the ratio” and the “deformation of appearance, organ or bone of fetal mice” value [13] was “not found”. For the same molecule, the “survival fetal number, absorption fetal number, weight, length, tail length versus control” value [13] was “no obvious difference”, the pharmacokinetic model [14] was 3-ventricle open model and the “occurrence rate of polychromatic erythrocytes micronucleus versus negative contrast” value [15] was “no obvious difference”. For the same molecule, the “carboxylic proline, external fluid of endothelial cells” value [16] was 2.43 ± 0.21 µg/mL, the “carboxylic proline, internal fluid of endothelial cells” value [16] was 2.70 ± 0.06 µg/mL and the “osamine polysaccharide, first value (internal fluid)” value [16] was 0.95 ± 0.12 µg/mL. For the same molecule, the “osamine polysaccharide, second value” [16] was 0.68 ± 0.15 µg/mL, the pharmacokinetic model [17] was 2-ventricle open model and the “competition with the labeled ligand” value ([18]; conjugated competition) was “able to compete with the labeled ligand”. For the same molecule, the “maximum combination capacity of the β-receptor” value ([18]; rats's myocardial membrane) was “clearly reduce the maximum combination capacity”, the myocardial index ([19]; 30 minutes and 2 hours after (p<0.01, P=0.05)) was “clearly reduces” and the “genesis rate of infarction expansion” value ([19]; human, in vivo) was “obviously lowers”. The “lowering of LVSD” value ([20]; 20 mg/kg i.v., 5 minutes after blockage) was 10.14%, the “myocardial infarction scope (N-BT)” value ([20]; 20 mg/kg i.v., 6 hours later) was “reduces significantly” and the aortic pressure ([20]; intravenous injection) was “lower the aortic pressure”. The “release of myocardial CPK” value ([20]; ischemia and reperfusion) was “lowers the release of myocardial CPK”, the “secreted from the urine” value ([21]; 36 hours) was 0.78% and the “secreted from the stool” value ([21]; 72 hours) was 73.3%. The “mutation rate (MR)” value [22] was under 2, the “adrenal gland's activation of dissolved adenylate cyclase” value [23] was “completely inhibit” and the arrhythmic time [24] was “shorten the arrhythmic time”. The “secreted from the bile” value ([25]; intravenous injection) was 3.65%, the “secreted from the stool” value ([25]; intravenous injection) was 7.39% and the “secreted from the urine” value ([25]; intravenous injection) was 37.62%. The tissue content ([25]; intravenous injection) was “the content in kidney is highest, blood plasma takes second place and the brain has lesser”, the oral absorption ([25]; oral) was “absorbed faster but not complete” and the excreted as stool ([25]; oral, 24 hours) was 35.7%. For the same molecule, the excreted as urine ([25]; oral, 24 hours) was 1.85% and the “medication volume retrieved from gastrointestinal substance and stool” value ([25]; oral, after 24 hours) was 37.3 % of the volume administrated.
